Test results: patent publication US11427561B2, “IRAK4 inhibiting agents” (BIOGEN MA INC., priority 2016, dated 2022)
pEC50, pIC50: −log10 of the molar value.

Columns and labels:
A549 cells = experiment: Cell-based assay: IL-6 ELISA quantification in A549 cells stimulated with human IL-1beta; settings: 2 ng/ml human IL-1beta overnight
Experimental: Cell-based Assay: The cell-based assays is based on IL-6 ELISA quantification. Briefly, A549 cells are cultured in DMEM with 10% FBS medium. When cells reach 80% confluence they are trypsin treated and seeded 180 ul/well in 96-well plate at 2.5×10^4 cells/well. Then, 20 ul of compound serial dilutions (starting at 10 uM, 10 points) are added to the cell plate; incubate for 30 min at 37 C and stimulated with 2 ng/ml human IL-1beta 37 C, 5% CO2 overnight. The next day 100 ul of cell supernatant per well are analyzed on a Human IL-6 Quantikine ELISA kit from R&D Systems.
The compounds described herein were tested for in the above biochemical and cell-based assays.

IRAK4 = IRAK4 (Homo sapiens (Human), UniProt Q9NWZ3); experiment: IRAK-4 biochemical assay, AlphaScreen format (phosphorylation of a biotin labeled peptide); settings: 1 nM IRAK4, 1.6 μM peptide, 1 mM ATP, 3.5 h at RT
Experimental: Biochemical Assay: The biochemical assay is in a AlphaScreen format. The kinase reaction is based on the IRAK-4 phosphorylation of a biotin labeled peptide. The phosphopeptide is incubated with anti-phosphothreonine antibody as well as streptavidin- and protein A-coated beads. Binding of the protein-A coated beads to the antibody and the streptavidin beads to the peptide, leads to an energy transfer from one bead to the other, ultimately producing a luminescent/fluorescent signal.
Generally, the kinase reaction is carried out at 1 nM IRAK4, 1.6 μM peptide, 1 mM ATP in reaction buffer 50 mM Hepes, 60 mM NaCl, 5 mM MgCl2, 0.25 mM MnCl2, 2 mM DTT, 0.01% BSA, 0.01% Tween-20) for 3.5 h at RT.
The compounds described herein were tested for in the above biochemical assay.

astrocytes and microglia = settings: cited from earlier work
primary human microglia = settings: cited from earlier work
primary human astrocytes = settings: cited from earlier work

IRAK4, sequence (Q9NWZ3 whole entry, species assumed): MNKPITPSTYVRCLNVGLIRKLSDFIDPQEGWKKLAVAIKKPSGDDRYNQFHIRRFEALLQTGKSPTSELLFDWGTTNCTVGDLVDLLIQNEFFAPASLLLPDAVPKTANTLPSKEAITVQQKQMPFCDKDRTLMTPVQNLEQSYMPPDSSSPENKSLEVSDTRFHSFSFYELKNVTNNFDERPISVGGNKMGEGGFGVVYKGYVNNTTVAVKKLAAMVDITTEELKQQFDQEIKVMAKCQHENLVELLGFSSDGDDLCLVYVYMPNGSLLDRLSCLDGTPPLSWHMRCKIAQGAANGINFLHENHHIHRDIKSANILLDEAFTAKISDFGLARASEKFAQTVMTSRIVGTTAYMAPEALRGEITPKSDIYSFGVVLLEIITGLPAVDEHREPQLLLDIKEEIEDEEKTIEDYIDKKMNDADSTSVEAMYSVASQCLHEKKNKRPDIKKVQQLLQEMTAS

Row | pEC50 (A549 cells; Homo sapiens, A549, A549 cells) | pIC50 (IRAK4) | SMILES | also measured
1 | 5.00 to 6.00 | ≥ 7.00 | CCc1cccc(-n2ncc3ccc(-c4cccc([C@@H](N)C5CC(O)C5)n4)cc32)n1 (stereo partly drawn) [Compound 35b, 3-((S)-amino(6-(1-(6-ethylpyridin-2-yl)-1H-indazol-6-yl)pyridin-2-yl)methyl)cyclobutan-1-ol] | 
2 | 5.00 to 6.00 | 6.00 to 7.00 | COc1cccc(-n2ncc3ccc(-c4cccc([C@@H](N)C5CC(O)C5)n4)cc32)n1 (stereo partly drawn) [Compound 35e, (S)-3-(amino(6-(1-(6-methoxypyridin-2-yl)-1H-indazol-6-yl)pyridin-2-yl)methyl)cyclobutan-1-ol] | 
3 | 5.00 to 6.00 | ≥ 7.00 | CC1(O)CC([C@H](N)c2cccc(-c3ccc4cnn(-c5cccc(CF)n5)c4c3)n2)C1 (stereo partly drawn) [Compound 35f, 3-((S)-amino(6-(1-(6-(fluoromethyl)pyridin-2-yl)-1H-indazol-6-yl)pyridin-2-yl)methyl)-1-methylcyclobutan-1-ol] | 
4 | ≥ 6.00 | ≥ 7.00 | CC1(O)CC([C@H](N)c2cccc(-c3ccc4cnn(-c5cccc(C(F)F)n5)c4c3)n2)C1 (stereo partly drawn) [Compound 35g, 3-((S)-amino(6-(1-(6-(difluoromethyl)pyridin-2-yl)-1H-indazol-6-yl)pyridin-2-yl)methyl)-1-methylcyclobutan-1-ol] | 
5 | ≥ 6.00 | ≥ 7.00 | COC1CC([C@H](N)c2cccc(-c3ccc4cnn(-c5cccc(C(F)F)n5)c4c3)n2)C1 (stereo partly drawn) [Compound 35h, (S)-(6-(1-(6-(difluoromethyl)pyridin-2-yl)-1H-indazol-6-yl)pyridin-2-yl)(3-methoxycyclobutyl)methanamine] | 
6 |  | 6.00 to 7.00 | CC1(O)CC([C@H](N)c2cccc(-c3ccc4cnn(-c5cccc(CF)n5)c4c3)n2)C1 (stereo partly drawn) [Compound 35i, 3-((S)-amino(6-(1-(6-(fluoromethyl)pyridin-2-yl)-1H-indazol-6-yl)pyridin-2-yl)methyl)-1-methylcyclobutan-1-ol] | pEC50 (A549 cells; A549 cells): 5.00 to 6.00
7 |  |  | O=C(Nc1nc2ccccc2n1CCN1CCOCC1)c1cccc([N+](=O)[O-])c1 [IRAK-1/4 inhibitor I] | in vitro uptake of amyloid β (Aβ) (astrocytes and microglia): not affected; lipopolysaccharide-induced secretion of monocyte chemotactic protein-1 (MCP-1) (primary human microglia): reduced; interleukin-1β-induced secretion of MCP-1 (primary human astrocytes): reduced; interleukin-1β-induced secretion of interleukin 6 (primary human astrocytes): reduced
